The target in experiment [1] is T1, Sodium-dependent serotonin transporter (Homo sapiens, UniProt P31645).
Description: Inhibitory concentration against serotonin transporter
Experiment [2] concerns the target T2, 5-hydroxytryptamine receptor 1A (Homo sapiens, UniProt P08908).
T2 sequence (P08908 whole entry): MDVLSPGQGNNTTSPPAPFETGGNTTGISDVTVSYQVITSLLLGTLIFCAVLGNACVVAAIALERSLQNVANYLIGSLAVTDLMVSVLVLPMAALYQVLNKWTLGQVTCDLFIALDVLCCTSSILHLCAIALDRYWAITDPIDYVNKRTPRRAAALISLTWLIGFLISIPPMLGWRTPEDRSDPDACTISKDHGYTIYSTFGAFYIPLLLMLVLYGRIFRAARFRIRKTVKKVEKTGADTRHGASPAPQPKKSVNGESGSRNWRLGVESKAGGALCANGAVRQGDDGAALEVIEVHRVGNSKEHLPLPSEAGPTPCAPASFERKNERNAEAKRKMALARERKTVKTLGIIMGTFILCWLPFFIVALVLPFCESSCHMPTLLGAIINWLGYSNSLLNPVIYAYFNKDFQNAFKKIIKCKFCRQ
Description: Inhibition constant against 5-hydroxytryptamine 1A receptor

For experiment [3], the target named is T3, Peroxisome proliferator-activated receptor alpha (Homo sapiens, UniProt Q07869).
T3 sequence (Q07869 whole entry): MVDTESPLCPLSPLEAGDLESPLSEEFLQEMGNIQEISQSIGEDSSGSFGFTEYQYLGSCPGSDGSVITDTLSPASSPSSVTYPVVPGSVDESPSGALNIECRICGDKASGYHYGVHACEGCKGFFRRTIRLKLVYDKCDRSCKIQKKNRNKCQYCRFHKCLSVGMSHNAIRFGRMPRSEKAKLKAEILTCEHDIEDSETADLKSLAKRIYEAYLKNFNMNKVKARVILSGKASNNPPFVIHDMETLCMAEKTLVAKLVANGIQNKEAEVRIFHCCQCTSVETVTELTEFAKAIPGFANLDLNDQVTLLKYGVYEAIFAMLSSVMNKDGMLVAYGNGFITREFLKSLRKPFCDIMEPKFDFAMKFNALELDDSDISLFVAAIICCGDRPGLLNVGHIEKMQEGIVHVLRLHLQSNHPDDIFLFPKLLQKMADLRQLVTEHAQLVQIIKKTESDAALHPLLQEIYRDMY
Description: Binding affinity towards peroxisome proliferator activated receptor alpha

Experiment [4] has as its target T4, Peroxisome proliferator-activated receptor gamma (Homo sapiens, UniProt P37231).
T4 sequence (P37231 whole entry): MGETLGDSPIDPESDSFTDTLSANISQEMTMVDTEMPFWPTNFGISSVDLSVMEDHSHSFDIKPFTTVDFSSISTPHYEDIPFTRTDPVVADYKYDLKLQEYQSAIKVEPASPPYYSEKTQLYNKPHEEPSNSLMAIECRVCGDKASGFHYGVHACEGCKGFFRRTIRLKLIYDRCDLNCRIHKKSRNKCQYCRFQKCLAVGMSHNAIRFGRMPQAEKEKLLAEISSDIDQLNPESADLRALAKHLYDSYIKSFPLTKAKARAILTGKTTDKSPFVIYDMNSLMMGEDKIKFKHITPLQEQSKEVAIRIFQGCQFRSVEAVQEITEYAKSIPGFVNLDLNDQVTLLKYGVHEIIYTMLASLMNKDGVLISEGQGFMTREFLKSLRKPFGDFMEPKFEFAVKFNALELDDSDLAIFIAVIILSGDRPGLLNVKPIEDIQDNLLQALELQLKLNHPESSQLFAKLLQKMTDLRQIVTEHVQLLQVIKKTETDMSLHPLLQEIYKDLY
Description: Binding affinity towards peroxisome proliferator activated receptor gamma

Experiment [5] has as its target T1, Sodium-dependent serotonin transporter. The source holds these as a separate data set.
Description: Inhibition constant against serotonin transporter
For experiment [6], the target named is T5, Adrenergic receptor alpha-1 (Homo sapiens, UniProt P35348+P25100+P35368).
T5 sequence (P35348 whole entry): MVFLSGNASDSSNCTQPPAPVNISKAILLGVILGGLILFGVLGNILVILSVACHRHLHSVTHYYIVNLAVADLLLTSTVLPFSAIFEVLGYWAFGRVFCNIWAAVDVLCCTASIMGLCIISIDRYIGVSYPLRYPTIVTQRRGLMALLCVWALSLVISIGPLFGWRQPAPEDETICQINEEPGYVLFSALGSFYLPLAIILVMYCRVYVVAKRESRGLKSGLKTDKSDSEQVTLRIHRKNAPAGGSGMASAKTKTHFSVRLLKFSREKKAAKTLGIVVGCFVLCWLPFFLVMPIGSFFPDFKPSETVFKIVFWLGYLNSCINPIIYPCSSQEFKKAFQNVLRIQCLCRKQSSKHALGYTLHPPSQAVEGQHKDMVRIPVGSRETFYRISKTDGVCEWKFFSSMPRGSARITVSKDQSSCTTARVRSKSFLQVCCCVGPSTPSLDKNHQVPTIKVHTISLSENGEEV
T5 sequence (P25100 whole entry): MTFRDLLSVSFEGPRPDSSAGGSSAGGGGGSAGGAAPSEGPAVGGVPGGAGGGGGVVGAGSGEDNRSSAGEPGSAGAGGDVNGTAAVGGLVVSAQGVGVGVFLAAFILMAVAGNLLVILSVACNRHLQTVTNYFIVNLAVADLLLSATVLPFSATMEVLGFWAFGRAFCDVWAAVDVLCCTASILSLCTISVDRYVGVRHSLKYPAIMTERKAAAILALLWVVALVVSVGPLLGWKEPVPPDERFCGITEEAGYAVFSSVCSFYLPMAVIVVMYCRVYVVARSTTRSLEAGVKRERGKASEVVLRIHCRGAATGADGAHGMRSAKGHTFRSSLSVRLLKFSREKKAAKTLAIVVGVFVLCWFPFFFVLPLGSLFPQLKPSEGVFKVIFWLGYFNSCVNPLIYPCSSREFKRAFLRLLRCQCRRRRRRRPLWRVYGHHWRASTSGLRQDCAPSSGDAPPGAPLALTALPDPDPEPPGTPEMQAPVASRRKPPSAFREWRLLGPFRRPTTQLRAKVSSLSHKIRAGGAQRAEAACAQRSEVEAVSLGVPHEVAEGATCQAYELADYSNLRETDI
T5 sequence (P35368 whole entry): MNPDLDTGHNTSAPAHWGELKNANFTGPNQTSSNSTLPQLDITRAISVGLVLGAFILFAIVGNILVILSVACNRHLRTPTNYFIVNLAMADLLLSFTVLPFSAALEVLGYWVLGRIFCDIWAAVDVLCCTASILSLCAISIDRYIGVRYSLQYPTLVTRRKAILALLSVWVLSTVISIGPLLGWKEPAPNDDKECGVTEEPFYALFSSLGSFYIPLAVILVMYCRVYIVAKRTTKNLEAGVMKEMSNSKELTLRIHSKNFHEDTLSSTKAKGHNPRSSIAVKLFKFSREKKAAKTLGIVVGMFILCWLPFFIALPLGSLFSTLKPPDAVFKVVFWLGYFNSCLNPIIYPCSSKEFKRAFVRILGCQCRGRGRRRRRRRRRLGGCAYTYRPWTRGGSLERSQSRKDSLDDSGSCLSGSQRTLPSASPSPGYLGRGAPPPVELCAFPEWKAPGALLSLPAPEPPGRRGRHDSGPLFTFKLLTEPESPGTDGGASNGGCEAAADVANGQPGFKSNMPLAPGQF
Briefly: Inhibition constant against alpha adrenergic receptor. Type of experiment: protein assay.

The target in experiment [7] is T6, Polyunsaturated fatty acid 5-lipoxygenase (Homo sapiens, UniProt P09917).
T6 sequence (P09917 whole entry): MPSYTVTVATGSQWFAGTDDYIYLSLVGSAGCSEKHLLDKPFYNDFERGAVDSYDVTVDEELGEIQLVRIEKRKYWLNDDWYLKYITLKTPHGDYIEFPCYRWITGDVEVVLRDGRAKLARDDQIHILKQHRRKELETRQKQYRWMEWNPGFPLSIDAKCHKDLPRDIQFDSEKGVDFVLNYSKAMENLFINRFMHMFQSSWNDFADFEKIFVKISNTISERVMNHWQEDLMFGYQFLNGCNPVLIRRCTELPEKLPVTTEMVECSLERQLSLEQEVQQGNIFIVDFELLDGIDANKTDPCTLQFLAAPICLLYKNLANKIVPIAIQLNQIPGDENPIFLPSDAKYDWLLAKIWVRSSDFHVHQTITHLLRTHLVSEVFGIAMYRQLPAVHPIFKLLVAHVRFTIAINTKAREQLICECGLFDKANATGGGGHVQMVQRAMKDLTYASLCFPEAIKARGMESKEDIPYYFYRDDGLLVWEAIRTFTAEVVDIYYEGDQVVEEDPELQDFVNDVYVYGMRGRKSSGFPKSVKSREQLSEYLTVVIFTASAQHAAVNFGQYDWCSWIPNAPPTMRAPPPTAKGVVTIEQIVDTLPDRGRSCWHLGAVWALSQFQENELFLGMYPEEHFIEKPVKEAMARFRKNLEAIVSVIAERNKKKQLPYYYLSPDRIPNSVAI
Briefly: Inhibitory concentration against arachidonate 5-lipoxygenase.

The target of the next experiment is Cyclooxygenase (Homo sapiens, UniProt P35354+P23219).
A further experiment addresses T7, Substance-K receptor (Homo sapiens, UniProt P21452).
T7 sequence (P21452 whole entry): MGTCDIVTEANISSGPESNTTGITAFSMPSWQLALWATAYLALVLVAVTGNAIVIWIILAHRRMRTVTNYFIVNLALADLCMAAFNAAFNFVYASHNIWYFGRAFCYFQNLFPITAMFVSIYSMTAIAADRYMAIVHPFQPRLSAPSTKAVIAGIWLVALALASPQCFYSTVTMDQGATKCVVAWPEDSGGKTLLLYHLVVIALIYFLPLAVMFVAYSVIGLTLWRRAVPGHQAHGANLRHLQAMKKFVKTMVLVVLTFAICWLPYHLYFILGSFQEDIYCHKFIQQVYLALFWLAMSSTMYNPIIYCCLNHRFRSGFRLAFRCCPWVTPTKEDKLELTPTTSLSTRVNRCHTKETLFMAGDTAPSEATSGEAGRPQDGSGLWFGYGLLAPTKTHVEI

Experiment [8] concerns the target T1, Sodium-dependent serotonin transporter. As to the kind of experiment: Negative logarithm causing 50% receptor occupancy against serotonin transporter.
Experiment [9] deals with T6, Polyunsaturated fatty acid 5-lipoxygenase.
The target of experiment [10] is T8, Peroxisome proliferator-activated receptor delta (Homo sapiens, UniProt Q03181).
T8 sequence (Q03181 whole entry): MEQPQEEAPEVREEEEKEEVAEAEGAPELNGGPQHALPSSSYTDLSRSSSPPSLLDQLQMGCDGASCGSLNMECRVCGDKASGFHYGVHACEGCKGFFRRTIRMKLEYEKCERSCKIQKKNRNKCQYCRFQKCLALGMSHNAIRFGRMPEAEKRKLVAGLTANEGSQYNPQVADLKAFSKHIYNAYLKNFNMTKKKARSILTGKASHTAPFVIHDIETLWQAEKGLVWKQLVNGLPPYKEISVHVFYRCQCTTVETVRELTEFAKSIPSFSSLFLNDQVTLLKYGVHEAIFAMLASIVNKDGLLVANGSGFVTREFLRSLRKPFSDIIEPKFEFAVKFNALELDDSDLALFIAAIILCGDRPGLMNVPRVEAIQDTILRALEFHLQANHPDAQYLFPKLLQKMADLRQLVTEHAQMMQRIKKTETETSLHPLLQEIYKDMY
Description: Binding affinity towards peroxisome proliferator activated receptor delta

T1 sequence (P31645 whole entry): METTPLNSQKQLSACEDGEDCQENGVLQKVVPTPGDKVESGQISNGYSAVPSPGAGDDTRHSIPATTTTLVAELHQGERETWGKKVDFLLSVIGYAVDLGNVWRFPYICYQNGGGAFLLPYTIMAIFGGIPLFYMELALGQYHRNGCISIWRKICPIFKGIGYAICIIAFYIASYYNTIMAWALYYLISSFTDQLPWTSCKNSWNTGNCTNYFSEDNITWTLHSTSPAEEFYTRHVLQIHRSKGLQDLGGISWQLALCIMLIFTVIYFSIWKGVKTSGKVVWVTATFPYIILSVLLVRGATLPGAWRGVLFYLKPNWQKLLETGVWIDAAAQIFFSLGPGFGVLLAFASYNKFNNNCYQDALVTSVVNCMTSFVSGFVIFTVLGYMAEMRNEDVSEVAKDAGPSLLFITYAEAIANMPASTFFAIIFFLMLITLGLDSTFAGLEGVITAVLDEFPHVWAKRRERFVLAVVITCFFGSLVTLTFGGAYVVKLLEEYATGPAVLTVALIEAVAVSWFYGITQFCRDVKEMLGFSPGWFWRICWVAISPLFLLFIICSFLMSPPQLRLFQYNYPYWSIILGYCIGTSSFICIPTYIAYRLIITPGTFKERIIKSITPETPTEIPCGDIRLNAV
Description for Cyclooxygenase: Inhibitory concentration against prostaglandin G/H synthase
Description for Substance-K receptor: Inhibitory concentration against tachykinin receptor 2

In experiment [1], `COc1cccc2c1CCCC2CN(C)CCc1cccc(F)c1` (stereo not drawn) showed an IC50 of 160 nM. Moreover, the inhibition constant Ki in [2] was found to be 3.2 nM.

`CCOC(Cc1ccc(OCCN(C)C2=Nc3ccccc3Sc3ccccc32)cc1)C(=O)O` (stereo not drawn): the Kd is 7500 nM in [3] and 9800 nM in experiment [4].

`C1=C(c2c[nH]c3ncccc23)CCN(CCOc2cccc3[nH]ccc23)C1`: the Ki in experiment [5] turned out to be 1.5 nM; in experiment [6] it was 1 nM.

In the case of `COc1ccc(-n2nc(C#CC(C)N(O)C(C)=O)cc2-c2ccc(Cl)cc2)cc1` (stereo not drawn), the IC50 worked out at 110 nM in experiment [7] and 30 nM at Cyclooxygenase.

`CN(C)CC(O)COc1cccc2[nH]ccc12` (stereo not drawn): the inhibitory constant (Ki) in experiment [5] was more than 7000 nM; in experiment [2], 24 nM.

In the case of `COc1ccccc1CN[C@H]1C2CCN(CC2)[C@@H]1C(c1ccccc1)c1ccccc1`, on Substance-K receptor, the 50% inhibitory concentration (IC50) was more than 10000 nM.

`O=C1COc2ccc(OCCNCCCOc3cccc4[nH]ccc34)cc2N1` showed an inhibition constant (Ki) in experiment [8] of 79.4 nM.

`Cc1c(O)c(C)c2sc(NCc3ccc(S(N)(=O)=O)cc3)nc2c1C` displayed a half-inhibitory concentration (IC50) in experiment [9] of 230 nM.

In the case of `CC(COc1ccc2c(c1)NC(=O)CO2)NCC(O)COc1cccc2[nH]ccc12` (stereo not drawn), the Ki in experiment [8] was 50.1 nM.

Turning to `CCO[C@@H](Cc1ccc(OCC=C(c2ccccc2)c2ccccc2)cc1)C(=O)O`, the dissociation constant Kd turned out to be 6400 nM in experiment [3], 5700 nM in experiment [10] and 2700 nM in experiment [4].

Regarding `CC(C)(C)c1cc(C=C2SC(N)=NC2=O)cc(C(C)(C)C)c1O`, the 50% inhibitory concentration (IC50) in [7] came out at 770 nM; on Cyclooxygenase, 390 nM.

In turn, `CCN(CC)C(=O)[C@@]1(c2ccccc2)CC1CNCC(O)COc1cccc2[nH]ccc12` (stereo partly drawn) came in with a concentration for half-maximal inhibition (IC50) in experiment [1] of 120 nM. In [2], this compound showed a Ki of 45 nM.

Consider `CCO[C@@H](Cc1ccc(OCCn2c3ccccc3c3ccccc32)cc1)C(=O)O`, for which the Kd was 360 nM in [3], 3000 nM in experiment [10] and 170 nM in experiment [4].

Turning to `CC(C)(C)c1cc(C(=O)c2cccs2)cc(C(C)(C)C)c1O` [PRIFELONE], the IC50 in experiment [7] worked out at 20000 nM; against Cyclooxygenase, 500 nM.

Take `CN1[C@@H]2CC[C@H]1C[C@@H](OC(=O)c1c[nH]c3ccccc13)C2` [TROPISETRON]: the Ki in experiment [2] was 5.3 nM.

Compound `CN(C)C(=O)Oc1ccc2c(c1)C=CCN(C)[C@@H]2CCOc1ccc([N+](=O)[O-])cc1` yielded a half-maximal inhibitory concentration (IC50) in experiment [1] of 6 nM.

`COc1cccc2c1CCCC2CN(C)CCc1ccc2c(c1)OCO2` (stereo not drawn) displayed a 50% inhibitory concentration (IC50) in experiment [1] of 21 nM. The compound also showed a Ki in experiment [2] of 6.7 nM.

Turning to `CCO[C@@H](Cc1ccc(OCC=C(c2ccc(-c3ccccc3)cc2)c2ccc(-c3ccccc3)cc2)cc1)C(=O)O`, the dissociation constant Kd in experiment [3] was 1100 nM; in experiment [10] it was 500 nM; in [4], 300 nM.

As usually defined, the IC50 is the concentration needed to halve the response being measured. Read a high IC50 as weaker potency in that assay. In general, Ki refers to the dissociation constant of the complex between target and ligand, obtained from inhibition or displacement. A lower Ki goes with a stronger hold on the target. What is called Kd is the free concentration of one partner at which half of the binding sites on the other are occupied at equilibrium, for simple one-to-one binding.

Source of the values: ChEMBL document CHEMBL1140446, “Designed multiple ligands. An emerging drug discovery paradigm” (J Med Chem, 2005).
